According to patent US20070048371A1, “Pharmaceutical formulations/composition of guanfacine suitable for single dose form administration daily” (priority 2005, published 2007):

Columns and labels:
[1] = Example 3: Phase I single-dose crossover bioequivalence/dose proportionality study, 1 mg, 2 mg, 4 mg tablets, healthy adult volunteers; type: in vivo, human; details: for half-life: t1/2; for Vd/F: Vz/F
Procedure: Objectives: The study was designed to assess the bioequivalence of guanfacine 2 mg and 4 mg tablets from table 2 and to investigate the dose proportionality of 1 mg, 2 mg, and 4 mg doses.
Methods: This was a Phase I, randomized, open-label, single-dose, five period, four-treatment crossover design with a separate lead-in period.
Forty-nine (49) healthy adult volunteers completed the study. During period 1, all subjects received a single 1 mg dose administered after and overnight fast. Prior to period 2, subjects were randomly assigned to one of four sequence groups, with 13 subjects per sequence. During treatment periods 2-5, subjects received their assigned treatment of 2 mg or 4 mg. All subjects were to receive two single doses of 2 mg tablets and two single doses of 4 mg tablets during the course of the study. Doses during periods 2-5 were also administered after an overnight fast.

[2] = Example 4: Phase I single-dose crossover bioequivalence study, 2.5 mg versus 2 mg tablets, healthy adult volunteers; type: in vivo, human; details: human, in vivo; for AUC(0-t): AUC0-last
Procedure: Objectives: The objective of this study was to investigate the bioequivalence of guanfacine 2.5 mg tablets versus guanfacine 2 mg tablets.
Methods: This Phase I study utilized a randomized, open-label, single-dose, three-treatment crossover design. Forty-eight (48) healthy adult volunteers completed the study. All subjects were randomly assigned to one of 6 treatment sequences and received a 2 mg and 2.5 mg tablet of guanfacine. During treatment periods 1-3, subjects received their assigned treatment (a single oral dose 2 mg or 2.5 mg after an overnight fast).

N=C(N)NC(=O)Cc1c(Cl)cccc1Cl [guanfacine]
AUC(0-t) ([1]; human, in vivo, 1 mg, AUC0-last): ~29.3 ng·h/mL | AUC(0-inf) ([1]; human, in vivo, 1 mg, AUC∞): ~32.4 ng·h/mL | Cmax ([1]; human, in vivo, 1 mg, mean Cmax): ~0.98 ng/mL | Tmax ([1]; human, in vivo, 1 mg, median Tmax): ~6 h | half-life ([1]; human, in vivo, 1 mg): 1050 ± 228 min | AUC(0-t) ([1]; human, in vivo, 4 mg, AUC0-last): ~120 ng·h/mL | AUC(0-inf) ([1]; human, in vivo, 4 mg, AUC∞): ~125 ng·h/mL | Cmax ([1]; human, in vivo, 4 mg, mean Cmax): ~3.58 ng/mL | Tmax ([1]; human, in vivo, 4 mg, median Tmax): ~5 h | CL/F ([1]; human, in vivo, po, 1 mg): 560 ± 194 mL/mm | AUC(0-t) ([1]; human, in vivo, po, 1 mg, AUC0-t): 29.3 ± 8.84 ng·h/mL | AUC(0-inf) ([1]; human, in vivo, po, 1 mg, AUC0-∞): 32.4 ± 8.78 ng·h/mL | Cmax ([1]; human, in vivo, po, 1 mg, Cmax): 0.98 ± 0.26 ng/mL | Vd/F ([1]; human, in vivo, po, 1 mg): 823 ± 249 L | half-life ([1]; human, in vivo, po, 1 mg): 1050 ± 230 min | Tmax ([1]; human, in vivo, po, 1 mg, tmax): 6 h | AUC0-∞ ([1]; human, in vivo, po, 2 mg): 57.8 ± 19.1 ng·h/mL | AUC(0-t) ([1]; human, in vivo, po, 2 mg): 54.0 ± 17.6 ng·h/mL | Cmax ([1]; human, in vivo, po, 2 mg): 1.54 ± 0.53 ng/mL | Vz/F ([1]; human, in vivo, po, 2 mg): 889 ± 241 L | t1/2 ([1]; human, in vivo, po, 2 mg): 16.7 ± 4.12 h | AUC(0-t) ([1]; human, in vivo, po, 2 mg, AUC0-t): 55 ± 18 ng·h/mL | AUC(0-inf) ([1]; human, in vivo, po, 2 mg, AUC0-∞): 58.1 ± 18.8 ng·h/mL | Cmax ([1]; human, in vivo, po, 2 mg, Cmax): 1.59 ± 0.49 ng/mL | Vd/F ([1]; human, in vivo, po, 2 mg): 894 ± 328 L | half-life ([1]; human, in vivo, po, 2 mg): 984 ± 208 min | Tmax ([1]; human, in vivo, po, 2 mg, tmax): 6 h | AUC0-∞ ([1]; human, in vivo, po, 4 mg): 123 ± 44.6 ng·h/mL | AUC(0-t) ([1]; human, in vivo, po, 4 mg): 119 ± 43.4 ng·h/mL | Cmax ([1]; human, in vivo, po, 4 mg): 3.59 ± 1.40 ng/mL | Vz/F ([1]; human, in vivo, po, 4 mg): 866 ± 393 L | t1/2 ([1]; human, in vivo, po, 4 mg): 16.2 ± 4.15 h | AUC(0-t) ([1]; human, in vivo, po, 4 mg, AUC0-t): 120 ± 41.5 ng·h/mL | AUC(0-inf) ([1]; human, in vivo, po, 4 mg, AUC0-∞): 125 ± 46 ng·h/mL | Cmax ([1]; human, in vivo, po, 4 mg, Cmax): 3.58 ± 1.39 ng/mL | Vd/F ([1]; human, in vivo, po, 4 mg): 854 ± 294 L | half-life ([1]; human, in vivo, po, 4 mg): 1030 ± 331 min | Tmax ([1]; human, in vivo, po, 4 mg, tmax): 5.01 h | half-life ([1]; human, in vivo): 1030 ± 330 min | deaths or serious adverse events ([1]; single 1 mg, 2 mg, 4 mg doses, healthy adults): no deaths or serious adverse events | AUC(0-t) ([2]; 2.5 mg): ~81.3 ng·h/mL | AUC(0-inf) ([2]; 2.5 mg, AUC∞): ~85 ng·h/mL | Cmax ([2]; 2.5 mg, mean Cmax): ~2.49 ng/mL | Tmax ([2]; 2.5 mg, median Tmax): ~6 h | CL/F ([2]; po, 2 mg): 612 ± 303 mL/min | AUC(0-inf) ([2]; po, 2 mg, AUC0-inf): 64.2 ± 22.6 ng·h/mL | AUC(0-t) ([2]; po, 2 mg): 59.8 ± 20.9 ng·h/mL | Cmax ([2]; po, 2 mg, Cmax): 1.71 ± 0.56 ng/mL | half-life ([2]; po, 2 mg, T½): 1060 ± 348 min | Vd/F ([2]; po, 2 mg, Vz/F): 884 ± 382 L | Tmax ([2]; po, 2 mg, tmax): 6 h | T½ ([2]; po, 2.5 mg): 16.7 ± 7.4 h | Vz/F ([2]; po, 2.5 mg): 809 ± 406 L | AUC(0-inf) ([2]; po, 2.5 mg, AUC0-inf): 84.5 ± 34.2 ng·h/mL
